Experimental findings from US8173695B2, “Kappa selective opioid receptor antagonist” (Eli Lilly and Company, priority 2008, dated 2012) are described below.

“And” between values parts separate entries of the source, which are not always exact repeats. Equal values may be shown once.

One data set has as its system Male Fischer F-344 rats. In words: Stress-induced hyperthermia (in rat). As to conditions: for stress-induced hyperthermia (T2−T1): in °C. Type of data set: in vivo.
Another data set concerns Male NIH-Swiss mice. Put plainly: Mouse forced swim test. Type of data set: in vivo. Particulars: for immobility in mouse forced swim test, Mean: 30 min. The source says: This test evaluates the effect of test compound on mice mobility as a measure of antidepressant effect. The less immobility compared to vehicle, the more pronounced the antidepressant-like effect.
Male, NIH-Swiss mice (25-30 g) (Harlan Sprague-Dawley, Indianapolis, Ind., USA) are housed in a vivarium for at least one week prior to use with water and rodent chow freely available during this acclimation period. Animals are removed from the vivarium to the testing area in their home cages and allowed to adapt to the new environment for at least one hour before testing.
Mice are placed in clear plastic cylinders (diameter: 10 cm; height: 25 cm) filled with 6 cm of water (22-25° C.) for six minutes. The duration of immobility during the last four minutes of the six minutes test period is scored. A mouse is recorded as immobile when floating motionless or making only those movements necessary to keep its head above water.
The test compound is administered p.o. 1 hour prior to testing at 1.0 mg/kg, 3.0 mg/kg and 10.0 mg/kg, n of 8 per group in a vehicle of 5 ml of sterile water and 30 ml of diluted (10×) lactic acid. Imipramine is evaluated as a positive control, 15 mg/kg: p, 30 min. prior to testing n of 4.
A second study is carried out evaluating 1 and 3 mg/kg doses of the compound of Example 1A alone and in combination with 5 mg/kg of imipramine. Imipramine alone is evaluated at 5 and 15 mg/kg doses and a vehicle control is included in the study. For the combination studies, the compound of Example 1A is administered p.o. 30 minutes prior to administration of imipramine i.p. and the test initiated 30 minutes following imipramine administration. An n of 8 per group is evaluated for all groups. For the evaluations of the compound of Example 1A alone, testing is initiated 60 minutes following administration and testing of imipramine only treated animals is initiated 30 minutes following administration.

A further data set has as its system Sprague Dawley rats. In words: Prepulse inhibition, reversal of morphine induced disruption of PPI. Type of data set: in vivo, rat. Particulars: vehicle/20 mg/kg morphine sc; 20 mg/kg.
Setting [1] is: Study 1, positive control 10 mg/kg.

For `CNC1=Nc2ccc(Cl)cc2C(c2ccccc2)=[N+]([O-])C1` [CDP, chlordiazepoxide, reference compound], the “stress-induced hyperthermia (T2−T1)” value in the data set with Male Fischer F-344 rats (Study 2, 1 mg/kg CDP alone, po) was 0.75±0.06.

For the molecule `CN(C)CCCN1c2ccccc2CCc2ccccc21` [Imipramine, imipramine, reference compound], the entries for the “immobility in mouse forced swim test, Mean” value in the data set with Male NIH-Swiss mice (Imipramine 5 mg/kg i.p.) and with Male NIH-Swiss mice (Imipramine 15 mg/kg i.p.) were 161.94 s and 61.70 s, respectively. Moreover, the “antidepressant effect, in words” value in the data set on Male NIH-Swiss mice (imipramine 15 mg/kg, over vehicle control, p<0.05) is on record as “statistically significant antidepressant effect”.

Turning to `Cc1nc(C#Cc2cccnc2)cs1` [MTEP, 3-[(2-methyl-1,3-thiazol-4-yl)ethynyl]pyridine, reference compound], in the data set on Male Fischer F-344 rats (setting [1]), the baseline body temperatures entry is “without affecting” and the “stress-induced hyperthermia (T2−T1)” value is given as 0.42±0.09. Moreover, in the data set with Male Fischer F-344 rats (Study 1, positive control 10 mg/kg, p<0.05), the “reduction in stress-induced hyperthermia, in words” value is “significantly reduces”.

Take `CN1CC[C@]23c4c5ccc(O)c4O[C@H]2[C@@H](O)C=C[C@H]3[C@H]1C5` [morphine, reference compound]: the “% Inhibition (PPI), individual rats” value in the data set with Sprague Dawley rats is 26.99% and −12.64% and 34.65% and 32.59% and 5.49% and 49.11% and 53.95% and 44.81% and 35.01% and −9.49% and 51.85% and 24.04% and 4.72% and 50.03%.
